# In US20050209278A1, “Piperidinyl- and piperazinyl-sulfonylmethyl hydroxamic acids and their use as protease inhibitors” (priority 2002, published 2005):
# Biological target: T1, MMP-1 (Homo sapiens, UniProt P03956)
# T1 construct: made in house; host or cells: MMP-1-transfected HT-1080 cells (spent media)
# T1 sequence (P03956 100-469): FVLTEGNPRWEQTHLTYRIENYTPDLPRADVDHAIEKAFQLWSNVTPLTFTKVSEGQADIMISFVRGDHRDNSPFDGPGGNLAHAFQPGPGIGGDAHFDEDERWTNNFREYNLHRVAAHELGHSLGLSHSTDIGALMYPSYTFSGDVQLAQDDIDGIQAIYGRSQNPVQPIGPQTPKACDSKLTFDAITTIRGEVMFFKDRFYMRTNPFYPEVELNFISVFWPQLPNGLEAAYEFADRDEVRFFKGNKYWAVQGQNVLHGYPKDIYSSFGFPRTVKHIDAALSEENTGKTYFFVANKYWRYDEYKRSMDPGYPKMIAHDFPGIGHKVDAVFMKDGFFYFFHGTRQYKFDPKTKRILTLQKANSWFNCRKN
# Experiment: In vitro MMP inhibition, IC50 determination (fluorogenic substrate I)
# Assay type: biochemical
# Conditions: value in parenthesis; read-out: MMP-1 (IC-50)
# Experimental: Several hydroxamic acids and salts thereof were analyzed in in vitro assays to determine their ability to inhibit the MMP cleavage of peptide substrates. […] and IC50 constants were calculated from the assayed hydroxamic acid-MMP interactions. Human recombinant MMP-1, MMP-2, MMP-9, MMP-13, and MMP-14 were used in this assay. All enzymes were prepared in Assignee's laboratories following usual laboratory procedures. Protocols for the preparation and use of these enzymes are available in the scientific literature. See, e.g., Enzyme Nomenclature (Academic Press, San Diego, Calif., 1992) (and the citations therein). See also, Freije et al., “Molecular cloning and expression of collagenase-3, a novel human matrix metalloproteinase produced by breast carcinomas,” J Biol. Chem., 269(24), 16766-16773 (1994). The MMP-1 proenzyme was purified from the spent media of MMP-1-transfected HT-1080 cells provided by Dr. Harold Welgus of Washington University (St. Louis, Mo.). The protein was purified on a zinc chelating column. All MMPs were activated using 4-aminophenylmercuric acetate (“APMA”, Sigma Chemical, St. Louis, Mo.) or trypsin. MMP-9 also was activated using human recombinant MMP-3 (purified in Assignee's laboratory following standard cloning and purification techniques). […] Substrate (I) was purchased from Baychem (Redwood City, Calif.), and substrate II was prepared Assignee's laboratory. Substrate I was used in the IC50 determination assays, while substrate II was used in the Ki determination assays. In the absence of MMP inhibitory activity, either substrate is cleaved at the Gly-Leu peptide bond. […] The stock solutions of the assayed hydroxamic acids (or salts thereof) were prepared in 1% dimethyl sulfoxide (DMSO). […] The experiment controls contained the same amount of Buffer A/DMSO as the assayed sample, but contained no hydroxamic acid (or salt thereof). The assays from which the IC50 determinations were made were performed as follows. […] Louis, Mo.). The assayed hydroxamic acid samples were incubated in MicrofluorTM White Plates (Dynatech, Chantilly, Va.) and analyzed on a Perkin Elmer […] plate reader (Norwalk, Conn.). The excitation wavelength was 328 nm, and the emission wavelength-415 nm. […] As stated in the previous paragraph, samples containing varying concentrations of the same assayed hydroxamic acid were prepared. Inhibition was measured as a reduction in fluorescent intensity as a function of MMP inhibitor concentration. […] All values in Table 2 are given in nM units. The IC50 measurements are in parenthesis.
row,SMILES,IC50 [µM]
1,CCCCCCc1ccc(N2CCN(S(=O)(=O)C3(C(=O)NO)CCN(CCOC)CC3)CC2)cc1 [Example 199],> 10
2,CCCc1ccc(N2CCN(S(=O)(=O)C3(C(=O)NO)CCN(CCOC)CC3)CC2)cc1 [Example 200],> 10

# Results, then the molecule that gave them:
row,IC50 [µM],SMILES
1,> 10,COCCN1CCC(C(=O)NO)(S(=O)(=O)N2CCN(c3ccc(OC(F)(F)F)cc3)CC2)CC1 [Example 202]
2,> 10,O=C(NO)C1(S(=O)(=O)N2CCN(c3ccc(OC(F)(F)F)cc3)CC2)CCN(C2CC2)CC1 [Example 203]
3,6.85,COCCN1CCC(C(=O)NO)(S(=O)(=O)N2CCN(c3ccc(Br)cc3)CC2)CC1 [Example 201]
